Test results taken from BindingDB's records for doi:10.1021/jm00021a005 (University of Wisconsin-Madison, 1995).

Target: Peptidyl-prolyl cis-trans isomerase A, cyclophilin A (Homo sapiens) (UniProt P62937)
Test: The compound was tested for inhibition of […] isomerase (PPIase).

Chain of Peptidyl-prolyl cis-trans isomerase A, cyclophilin A (Homo sapiens) (P62937 whole entry, looked up): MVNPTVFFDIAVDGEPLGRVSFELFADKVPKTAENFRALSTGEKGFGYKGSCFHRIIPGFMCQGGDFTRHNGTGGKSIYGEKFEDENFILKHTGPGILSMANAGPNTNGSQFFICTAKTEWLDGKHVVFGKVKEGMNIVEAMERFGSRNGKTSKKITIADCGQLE

In order of rising Ki:
1. C/C=C/CC(C)C(O)[C@H]1C(=O)N[C@@H](CC)C(=O)N(C)[C@H](C)C(=O)N(C)[C@@H](CC(C)C)C(=O)N[C@@H](C(C)C)C(=O)N(C)[C@H](CC(C)C)C(=O)N[C@H](Cc2ccccc2)C(=O)N[C@H](C)C(=O)N(C)[C@H](CC(C)C)C(=O)N(C)[C@@H](CC(C)C)C(=O)N(C)[C@H](C(C)C)C(=O)N1C (stereo partly drawn) [15-Benzyl-30-ethyl-33-(1-hydroxy-2-methyl-hex-4-enyl)-6,9,18,24-tetraisobutyl-3,21-diisopropyl-1,4,7,10,12,19,25,27,28-nonamethyl-1,4,7,10,13,16,19,22,25,28,31undecaaza-cyclotritriacontan-2,5,8,11,14,17,20,23,26,29,32-undecaone]  6 nM
2. C/C=C/CC(C)[C@@H](O)[C@H]1C(=O)N[C@@H](CC)C(=O)N(C)CC(=O)N(C)[C@@H](CC(C)C)C(=O)N[C@@H](C(C)C)C(=O)N(C)[C@H](CC(C)C)C(=O)N[C@H](Cc2ccccc2)C(=O)N[C@@H](CO)C(=O)N(C)[C@H](CC(C)C)C(=O)N(C)[C@@H](CC(C)C)C(=O)N(C)[C@H](C(C)C)C(=O)N1C (stereo partly drawn) [15-Benzyl-30-ethyl-12-hydroxymethyl-33-(1-hydroxy-2-methyl-hex-4-enyl)-6,9,18,24-tetraisobutyl-3,21-diisopropyl-1,4,7,10,19,25,28-heptamethyl-1,4,7,10,13,16,19,22,25,28,31undecaaza-cyclotritriacontan-2,5,8,11,14,17,20,23,26,29,32-undecaone]  6 nM
3. C/C=C/CC(C)[C@@H](O)[C@H]1C(=O)N[C@@H](CC)C(=O)N(C)CC(=O)N(C)[C@@H](CC(C)C)C(=O)N[C@@H](C(C)C)C(=O)N(C)[C@H](CC(C)C)C(=O)N[C@H](Cc2ccccc2)C(=O)N[C@H](C)C(=O)N(C)[C@H](CC(C)C)C(=O)N(C)[C@@H](CC(C)C)C(=O)N(C)[C@H](C(C)C)C(=O)N1C (stereo partly drawn) [15-Benzyl-30-ethyl-33-(1-hydroxy-2-methyl-hex-4-enyl)-6,9,18,24-tetraisobutyl-3,21-diisopropyl-1,4,7,10,12,19,25,28-octamethyl-1,4,7,10,13,16,19,22,25,28,31undecaaza-cyclotritriacontan-2,5,8,11,14,17,20,23,26,29,32-undecaone]  33 nM
